Laboratory results from US20130261191A1, “USE OF ESSENTIAL OIL COMPOUNDS AS HISTOMONASTAT” (DSM IP ASSETS B.V., priority 2007, published 2013).

These compounds were tested on Histomonas meleagridis (assay: In vitro lethal activity (minimal lethal concentration) towards Histomonas meleagridis culture, Trypan blue vital coloration). Conditions: lowest dilution in which no live organisms were observed; H. meleagridis culture 10^6 parasites/ml, 39° C., anaerobic.
Assay type: cell-based
Procedure: The in vitro activity of the several essential oil compounds was assessed using the following technique. Aliquots of 1 ml of H. meleagridis culture (10^6 parasites/ml) were incubated anaerobicaly for 24 h at 39° C. Twelve two-fold dilutions of a stock solution of each compound were prepared in 96-well U bottom plates (Prolabo, Lyon, France) in Tween 80 (Sigma, L'Isle d'Abeau, France) and added to the parasites. The initial dilution was 2% ([…]). After incubation for 24 h and 48 h, the number of live parasite in each culture was estimated by vital coloration with Trypan blue 0.4% (Gibco, BRL Life technology, Cergy Pontoise, France). The lowest dilution in which no live organisms were observed was defined as the minimal lethal concentration (MLC).
`O=C/C=C/c1ccccc1` [cinnamaldehyde, trans-] was tested, and the “minimal lethal concentration (MLC)” value was 250 ppm. `Cc1ccc(C(C)C)cc1` [cymene, p-] was tested, and the “minimal lethal concentration (MLC)” value was 500 ppm. `C=CC(C)(O)CCC=C(C)CCC=C(C)C` (stereo not drawn) [nerolidol] was tested, and the “minimal lethal concentration (MLC)” value was 125 ppm.
